# Reference: article PMC11883000, “Structure-function relationship of ASH1L and histone H3K36 and H3K4 methylation” (Nature Communications, 2025)
# Tests used:
# mouse ES cells [1] = assay: qPCR of gene expression in mouse ES cells, RA-induced differentiation; type: cell-based; details: for HoxA9 relative expression / Neurog2 relative expression / Olig1 relative expression / Runx1 relative expression: + RA 2 days, qPCR
# Description: J1 ESCs were cultured feeder free on 0.1% gelatin-coated plates in ESC culture medium (Dulbecco’s modified Eagle’s medium (Hi-glucose), supplemented with 15% fetal bovine serum (Corning), non-essential amino acids, L-glutamine, β-mercaptoethanol, 1% penicillin/streptomycin, sodium pyruvate and 1000 U/mL leukemia inhibitory factor (LIF) (Ebioscience, 34-8521-82). For embryoid body formation, mouse ES cells were dissociated from gelatin-coated plates and seeded on non-adherent cell culture dishes (Greiner) at a density of 1 × 10^5 cells/mL in 10 mL of differentiation medium (ESC culture medium without LIF). Media was exchanged every 48 h and cells were collected at indicated time course. For neuronal differentiation, cells were plated on gelatin-coated plates at a density of 1×10^4 cells/cm^2 in ESC culture medium. The following day, medium was exchanged to differentiation medium +1 μM retinoic acid (RA) (Sigma) to induce differentiation. Medium was exchanged every 48 h for indicated time course.
# Total RNA was extracted with RNeasy Mini Kit (QIAGEN) and reverse transcribed using Superscript III Reverse Transcriptase (Life Technologies). qPCR analysis was performed using Brilliant III Ultra Fast SYBR Green QPCR Master Mix (Agilent Technologies). Gene expression data were normalized against Hprt/Gapdh and represented as fold change relative to the control. The relative expression values are shown as mean ± S.D. For ChIP-qPCR, chromatin occupancy was calculated as the ratio of the amount of immunoprecipitated DNA to that of the input sample (% input).
# CRISPR/Cas9 mediated editing was performed essentially as described. The designed gRNA ([…]) was cloned into the pSpCas9(BB)-2A-GFP (PX458) plasmid (a gift from Feng Zhang) and miniprepped using standard DNA miniprep procedures (Qiagen). J1 mES cells were transfected with sgRNAs or empty vector with Lipofectamine 2000 (ThermoFisher). Transfected cells were isolated by FACS at the Mount Sinai Flow Cytometry Core facility, and a single cell was plated per well in 96-well plates. Cells were cultured for 2-3 weeks until single colonies were visible. Cells were harvested and DNA was extracted using the QuickExtract solution (Epibio). PCR was performed using the following primers: Ash1l, F:TAGAAAGTCTGCACGGGCG, R:[…], Nestin, F:[…], R:[…], HoxA9, F:[…], R: […], Pax6, F:[…], R:[…], Gata4, F: […], R: […], Sox7, F:[…], R:[…], Pou5f1, F:[…], R:CAGGGCTTTCATGTCCTGG, Brachyury, F:GAGAGCGCAGGGAAGAGC, R:[…], Nkx2-5, F:[…], R:[…].
# [2] = system: Meis2 enhancer and promoter sites; assay: ChIP-qPCR of Ash1l occupancy at Meis2 promoter and enhancers; type: cell-based, mouse; details: for Ash1l occupancy, Meis2 Enh 1 / Ash1l occupancy, Meis2 Enh 2 / Ash1l occupancy, Meis2 Enh 3 / Ash1l occupancy, Meis2 promoter: Ash1l ChIP, + RA
# Description: J1 ESCs were cultured feeder free on 0.1% gelatin-coated plates in ESC culture medium (Dulbecco’s modified Eagle’s medium (Hi-glucose), supplemented with 15% fetal bovine serum (Corning), non-essential amino acids, L-glutamine, β-mercaptoethanol, 1% penicillin/streptomycin, sodium pyruvate and 1000 U/mL leukemia inhibitory factor (LIF) (Ebioscience, 34-8521-82). For embryoid body formation, mouse ES cells were dissociated from gelatin-coated plates and seeded on non-adherent cell culture dishes (Greiner) at a density of 1 × 10^5 cells/mL in 10 mL of differentiation medium (ESC culture medium without LIF). Media was exchanged every 48 h and cells were collected at indicated time course. For neuronal differentiation, cells were plated on gelatin-coated plates at a density of 1×10^4 cells/cm^2 in ESC culture medium. The following day, medium was exchanged to differentiation medium +1 μM retinoic acid (RA) (Sigma) to induce differentiation. Medium was exchanged every 48 h for indicated time course. Total RNA was extracted with RNeasy Mini Kit (QIAGEN) and reverse transcribed using Superscript III Reverse Transcriptase (Life Technologies). qPCR analysis was performed using Brilliant III Ultra Fast SYBR Green QPCR Master Mix (Agilent Technologies). Gene expression data were normalized against Hprt/Gapdh and represented as fold change relative to the control. The relative expression values are shown as mean ± S.D. For ChIP-qPCR, chromatin occupancy was calculated as the ratio of the amount of immunoprecipitated DNA to that of the input sample (% input).
# mouse ES cells [3] = assay: RNA-seq analysis of differentiated mouse ES cells; type: cell-based; details: RNA-seq data of ref 19
# Description: RNA-seq data reported by Yin et al.[19] was analyzed to compare RNA from undifferentiated mouse ES cells to RNA from mouse ES cells differentiated under various conditions, as described in Fig. 1. Reads were filtered using Trimmomatic v0.40 and mapped to the mouse reference genome (mm9) by TopHat (version 2.0.10). Fragments were enumerated to the UCSC reference transcriptome using the hseq-count function from the HTSeq package (version 0.6.0). Genes with <5 fragments were filtered out and gene expression changes (FC > 1.5, FDR < 0.01) were analyzed using DESeq2 (v1.42.1), with undifferentiated cells as controls. Heatmaps were generated using either the ggplot2 or pheatmap packages with z-score normalization.
# Supplementary Figure 1. Analysis of RNA-seq data reported by Yin et al. (ref. 19),
# comparing RNA from undifferentiated mouse ES cells to RNA from mouse ES cells
# differentiated under multiple conditions (see Figure 1). Gene expression changes (FC >
# 1.5, FDR < 0.01 ) in 4-day RA differentiated cells were identified using DESeq2, with
# undifferentiated cells as controls.
# after RA treatment. Related to Figure 1.
# (1 picture or pasted object on this page, not shown here)
# Ash1l = assay: Western blot of Ash1l protein expression level; type: cell-based, mouse; details: retinoic acid for 6 days
smiles,measurement,setting,value
"CC1=C(/C=C/C(C)=C/C=C/C(C)=C/C(=O)O)C(C)(C)CCC1 [RA, retinoic acid]",HoxA9 relative expression,"mouse ES cells [1]; WT mES cells, replicate 1",83.8652
same,Neurog2 relative expression,"mouse ES cells [1]; WT mES cells, replicate 1",4.681
same,Olig1 relative expression,"mouse ES cells [1]; WT mES cells, replicate 1",5.04
same,Runx1 relative expression,"mouse ES cells [1]; WT mES cells, replicate 1",31.4139
same,HoxA9 relative expression,"mouse ES cells [1]; WT mES cells, replicate 2",95.0095
same,Neurog2 relative expression,"mouse ES cells [1]; WT mES cells, replicate 2",6.712
same,Olig1 relative expression,"mouse ES cells [1]; WT mES cells, replicate 2",5.327
same,Runx1 relative expression,"mouse ES cells [1]; WT mES cells, replicate 2",47.9458
same,HoxA9 relative expression,"mouse ES cells [1]; WT mES cells, replicate 3",128.89
same,Neurog2 relative expression,"mouse ES cells [1]; WT mES cells, replicate 3",11.2096
same,Olig1 relative expression,"mouse ES cells [1]; WT mES cells, replicate 3",5.4768
same,Runx1 relative expression,"mouse ES cells [1]; WT mES cells, replicate 3",42.0296
same,transcriptional expression of Ash1l,"mouse ES cells [1]; qPCR time course, RA-induced differentiation",dramatic and time-dependent increase
same,"expression of HoxA9, Runx1, Neurog2, and Olig1 in CRISPR/Cas9 edited B7 clone","mouse ES cells [1]; retinoic acid, two days",altered expression
same,HoxA9 relative expression,"mouse ES cells [1]; ΔAsh1l B7 clone, replicate 1",9.646
same,Neurog2 relative expression,"mouse ES cells [1]; ΔAsh1l B7 clone, replicate 1",28.3773
same,Olig1 relative expression,"mouse ES cells [1]; ΔAsh1l B7 clone, replicate 1",3.982
same,Runx1 relative expression,"mouse ES cells [1]; ΔAsh1l B7 clone, replicate 1",2.976
same,HoxA9 relative expression,"mouse ES cells [1]; ΔAsh1l B7 clone, replicate 2",8.282
same,Neurog2 relative expression,"mouse ES cells [1]; ΔAsh1l B7 clone, replicate 2",24.5333
same,Olig1 relative expression,"mouse ES cells [1]; ΔAsh1l B7 clone, replicate 2",4.037
same,Runx1 relative expression,"mouse ES cells [1]; ΔAsh1l B7 clone, replicate 2",2.4005
same,HoxA9 relative expression,"mouse ES cells [1]; ΔAsh1l B7 clone, replicate 3",11.0043
same,Neurog2 relative expression,"mouse ES cells [1]; ΔAsh1l B7 clone, replicate 3",29.378
same,Olig1 relative expression,"mouse ES cells [1]; ΔAsh1l B7 clone, replicate 3",4.238
same,Runx1 relative expression,"mouse ES cells [1]; ΔAsh1l B7 clone, replicate 3",2.591
same,"Ash1l occupancy, Meis2 Enh 1",[2]; replicate 1,0.01897 % input
same,"Ash1l occupancy, Meis2 Enh 2",[2]; replicate 1,0.04268 % input
same,"Ash1l occupancy, Meis2 Enh 3",[2]; replicate 1,0.02225 % input
same,"Ash1l occupancy, Meis2 promoter",[2]; replicate 1,0.06078 % input
same,"Ash1l occupancy, Meis2 Enh 1",[2]; replicate 2,0.02319 % input
same,"Ash1l occupancy, Meis2 Enh 2",[2]; replicate 2,0.04358 % input
same,"Ash1l occupancy, Meis2 Enh 3",[2]; replicate 2,0.02683 % input
same,"Ash1l occupancy, Meis2 promoter",[2]; replicate 2,0.06121 % input
same,"Ash1l occupancy, Meis2 Enh 1",[2]; replicate 3,0.01327 % input
same,"Ash1l occupancy, Meis2 Enh 2",[2]; replicate 3,0.04413 % input
same,"Ash1l occupancy, Meis2 Enh 3",[2]; replicate 3,0.02442 % input
same,"Ash1l occupancy, Meis2 promoter",[2]; replicate 3,0.05366 % input
same,Ash1l recruitment to promoter and enhancer sites of Meis2,"[2]; RA-induced ESC differentiation, ChIP-qPCR",recruited to promoter and enhancer sites
same,Ash1l expression upregulation,"mouse ES cells [3]; 4 days RA differentiation, FDR < 0.01, vs undifferentiated",1.96 fold
same,"expression of Nsd1, all Mll family genes and several Plc genes (Ezh1, Ring1, Cbx7/8)",mouse ES cells [3]; RA differentiation,noticeably up-regulated
same,"expression of Setd2, BRD2/3/4 and Ezh2",mouse ES cells [3]; RA differentiation,down-regulated
same,Ash1l protein expression level,Ash1l,highest
